The values that follow come from PMC8765781, “A platform of assays for the discovery of anti-Zika small-molecules with activity in a 3D-bioprinted outer-blood-retina model” (PLoS ONE, 2022).

This assay relates to wild-type ZIKV (Ugandan MR766 strain) in Vero cells. The assay can be described thus: ZIKV cytopathic effect (CPE) inhibition qHTS assay, CellTiter-Glo readout. Format: cell-based, Zika virus. The conditions noted are these: for Emax: read-out: Max response. (Damage to the host cells serves as the signal in cytopathic effect assays.)
The mark [1] stands for this setting: Zika virus, Vero, read-out: Log AC50 (M) (converted).
[2] abbreviates: Zika virus, Vero, from Hill fit of the response curve, 50% of maximum activity response, 194 cherry-picked compounds, protocol name not given, read-out: AC50.
The mark [3] stands for this setting: Zika virus, Vero, potency in log units (Molar) from Hill fit of the response curve, 194 cherry-picked compounds, protocol name not given, read-out: Log AC50 (converted).
The mark [4] stands for this setting: difference between neutral response and maximum compound response.
The mark [5] stands for this setting: curve class v2 (Inglese et al. 2006).

Read-outs that look alike come from different tables or passages of the source.

In the case of `CC(=O)OC[C@]12C[C@H](O)C(C)=C[C@H]1O[C@@H]1[C@H](O)[C@@H](O)[C@@]2(C)[C@]12CO2` [NCGC00380760-01], the “CC-v2 (curve class classification of the dose response curve)” value (shortened to “CC-v2”) is on record as -1.2, the Efficacy is recorded as -57.268, the “Log AC50 (M)” value was -4.894 M and the “Max Resp” value is reported as -47.163. The AC50 (read-out: AC50) worked out at 1.28e-05 M.
For the molecule `CC1CCC2C(=CCC(O)C2(C)C)C1(C)Cc1c(O)cc(CO)c(C=O)c1O` (stereo not drawn) [NCGC00380764-01], the “CC-v2” value is reported as -2.2 and the Efficacy was -71.029. Under “Zika virus, Vero”, this molecule came in with a concentration at half-maximal activity (AC50) of 4.04e-05 M. Further, the AC50 under setting [1] was 4.04e-05 M.
Consider `CO[C@H]1/C=C/C=C/C=C/C[C@H](OC(=O)[C@@H](C)NC(=O)C2CCCCC2)[C@H](C)[C@@H](O)/C(C)=C\CCc2cc(O)cc(c2)NC(=O)C1` [NCGC00380800-01], for which the “CC-v2” value was -1.2 and the Efficacy is given as -73.026. The activity (Zika virus, Vero) was half-maximal at 5.44e-06 M (AC50). Further, under setting [1], the concentration at half-maximal activity (AC50) was 5.44e-06 M.
The molecule `C/C(=C\CCC(C)CCO)C(=O)OC1(C)CCC2C(C(=O)O)=COC(OC3OC(CO)C(O)C(O)C3O)C21` (stereo not drawn) [NCGC00380886-01] had a Curve class of -3 and an Efficacy of -68.93. In addition, under “Zika virus, Vero”, the AC50 was 1.12e-05 M and the Emax is -7.99%. Also, where the note is “Zika virus, Vero, read-out: Log AC50 (converted)”, the concentration at half-maximal activity (AC50) was 1.12e-05 M.
As for `C=C(CO)C(=O)O[C@H]1C/C(C)=C/CC/C(CO)=C/[C@H]2OC(=O)C(=C)[C@H]12` [NCGC00380889-01], the “CC-v2” value is -3 and the Efficacy is reported as -76.574. Besides, the half-maximal activity concentration (AC50) (Zika virus, Vero) is 1.43e-05 M. Under setting [1], the half-maximal activity concentration (AC50) is 1.43e-05 M.
Turning to `COc1c2c(c(C)c3c1C(=O)OC3)OC1(C)CC(O)C34OC(OC)(CCC3(C)C1C2)OC4(C)CO` (stereo not drawn) [NCGC00380890-01], the “CC-v2” value was -3 and the Efficacy is -69.031. Moreover, for the setting “Zika virus, Vero”, the concentration at half-maximal activity (AC50) was found to be 1.42e-05 M. Moreover, the concentration at half-maximal activity (AC50) under setting [1] was 1.42e-05 M.
For the molecule `COc1cc2c(cc1O)C(c1ccc(O)cc1)C(C)C(C)C2` (stereo not drawn) [NCGC00380925-01], the “CC-v2” value is -3 and the Efficacy is on record as -32.851. For the setting “Zika virus, Vero”, this molecule gave an AC50 of 6.51e-05 M. The AC50 under setting [1] was 6.51e-05 M.
On to `C=C(C)C(=O)OC1CC2(C)OC(=CC2=O)C(=C)CC2OC(=O)C(=C)C12` (stereo not drawn) [NCGC00381113-01], for which the AC50 under setting [2] is 2.02e-05 M and the half-maximal activity concentration (AC50) under setting [3] is 2.02e-05 M. Also, the Efficacy under setting [4] is recorded as -29.164.
Consider `C=C(C)C1CCC(C)C12CC(O)C1(C)OC1C2OC(=O)C(N)CCC(=O)O` (stereo not drawn) [NCGC00381118-01], for which the “CC-v2” value is listed as -3 and the Efficacy is -55.082. The molecule further returned an AC50 (Zika virus, Vero) of 2.02e-05 M. Moreover, under setting [1], the AC50 was 2.02e-05 M.
With `CC(=O)CC1CCC(C(C)C(=O)OCC(O)CO)O1` (stereo not drawn) [NCGC00381119-01], the “CC-v2” value is listed as -3 and the Efficacy was -53.159. The molecule further had an AC50 (Zika virus, Vero) of 2.91e-05 M. Also, the AC50 under setting [1] is 2.91e-05 M.
For the molecule `CC1=CC2(O)/C=C/C(C)(O)C(O)C(O)/C=C/C(=O)OC23C(=O)NC(CC(C)C)C3C1C` (stereo not drawn) [NCGC00381121-01], the “CC-v2” value was -3 and the Efficacy was -74.853. Besides, the concentration at half-maximal activity (AC50) (Zika virus, Vero) was determined as 1.59e-05 M. Further, the concentration at half-maximal activity (AC50) under setting [1] is 1.59e-05 M.
On to `C[C@@H]1CCC2C(C)(C)[C@H](O)CC[C@]2(C)[C@@]12Cc1c(O)cc3c(c1O2)CN(CCO)C3=O` (stereo partly drawn) [NCGC00381123-01], for which the “CC-v2” value is listed as -3 and the Efficacy is reported as -75.159. The same molecule registered a half-maximal activity concentration (AC50) (Zika virus, Vero) of 8.93e-06 M. Moreover, the half-maximal activity concentration (AC50) under setting [1] was 8.93e-06 M.
Consider `C/C=C(\C)C(=O)OC1CC2C(CC=C3CC(OC4CC(OC)C(OC5CC(OC)C(OC6CC(OC)C(OC7CC(OC)C(OC8CC(OC)C(OC9OC(CO)C(O)C(O)C9O)C(C)O8)C(C)O7)C(C)O6)C(C)O5)C(C)O4)CCC32C)C2(O)CCC(C(C)=O)C12C` (stereo not drawn) [NCGC00381127-01], for which the AC50 (Zika virus, Vero, primary qHTS curve fit, 194 cherry-picked compounds, log10 of molar AC50, read-out: Log AC50 (converted)) was 4.36e-06 M and the AC50 (Zika virus, Vero, primary qHTS curve fit, values match uM against the Log AC50 column, read-out: AC50) was 4.36e-06 M. Under “Zika virus, Vero, response at highest concentration”, the Emax was 4.53%. In addition, the Curve class (qHTS curve class, negative sign = inhibitory curve) was -3.
Take `CC(C)(O)C(O)C(=O)OCc1ccc(O[C@@H]2O[C@H](CO)[C@@H](O)[C@H](O)[C@H]2O)cc1` (stereo partly drawn) [NCGC00381128-01]: the “CC-v2” value is -3 and the Efficacy is recorded as -65.299. For the setting “Zika virus, Vero”, this molecule returned a half-maximal activity concentration (AC50) of 1e-05 M. For the same molecule, under setting [1], the half-maximal activity concentration (AC50) was 1e-05 M.
On to `CC1=CC2/C=C(\C)CCC(O)C3OC(C)(C)OC3CC(=O)OC23C(=O)NC(CC(C)C)C3C1C` (stereo not drawn) [NCGC00381131-01], for which the “CC-v2” value is on record as -3 and the Efficacy was -69.811. For the setting “Zika virus, Vero”, this molecule came in with an AC50 of 1.42e-05 M. Moreover, the concentration at half-maximal activity (AC50) under setting [1] is 1.42e-05 M.
With `C=C1C(=O)O[C@@H]2C(OC(=O)/C(C)=C\C)/C(C)=C\C(=O)/C=C(\C)C[C@H](O)[C@@H]12` (stereo partly drawn) [NCGC00381208-01], the “CC-v2” value was -3 and the Efficacy is -35.291. Also, the half-maximal activity concentration (AC50) (Zika virus, Vero) was found to be 5.08e-05 M. For the same molecule, the AC50 under setting [1] was 5.08e-05 M.
On to `CCC(C)C(=O)OC1CC(O)C23C4OCC5(C(O)CC2C1(C)C(O)O4)C3C(=O)CC1(C)C(c2ccoc2)CC2OC215` (stereo not drawn) [NCGC00381227-01], for which the concentration at half-maximal activity (AC50) is, setting by setting: under setting [2], 6.32e-06 M; under setting [3], 6.32e-06 M. Further, under setting [5], the “CC-v2” value is -2.2. Further, under setting [4], the Efficacy is given as -29.737.
For the molecule `CC(=O)OC[C@]12C[C@H](OC(C)=O)C(C)=C[C@H]1O[C@@H]1[C@H](O)[C@@H](O)[C@@]2(C)[C@]12CO2` [NCGC00381306-01], the Efficacy is -39.385, the “Log AC50 (M)” value is given as -5.644 M and the “Max Resp” value is reported as -23.356. In addition, the concentration at half-maximal activity (AC50) (read-out: AC50) stood at 2.27e-06 M.
For `C=C1C(=O)OC2/C=C(\C)C3=CC(=O)C(C)(CC(OC(=O)/C(C)=C/COC(C)=O)C12)O3` (stereo not drawn) [NCGC00384503-01], the “CC-v2” value is -2.1 and the Efficacy was -109.374. The molecule also displayed an AC50 (Zika virus, Vero) of 3.17e-05 M. Also, the concentration at half-maximal activity (AC50) under setting [1] was 3.17e-05 M.
As to `CC1=CC(=O)[C@@H](O)[C@]2(C)C3[C@@H](O)[C@@H]4OC(=O)[C@@H]([C@H]4C)[C@]3(C)C(=O)C[C@@H]12` (stereo partly drawn) [NCGC00384574-01], the “CC-v2” value is -1.2 and the Efficacy was -58.007. For the setting “Zika virus, Vero”, this molecule had an AC50 of 1.61e-06 M. The AC50 under setting [1] is 1.61e-06 M.
Turning to `C=C1CC2OC(=O)C(=C)C2C(OC(=O)/C(C)=C\C)CC2(C)OC1=CC2=O` (stereo not drawn) [NCGC00384607-01], the “CC-v2” value was -3 and the Efficacy is given as -115.469. This molecule also yielded an AC50 (Zika virus, Vero) of 4.53e-05 M. Further, the AC50 under setting [1] was 4.53e-05 M.
Turning to `COC1CCCC(C)OC(=O)Cc2cc(O)cc(O)c2C(=O)C1` (stereo not drawn) [NCGC00384664-01], the half-maximal activity concentration (AC50) runs as follows: under setting [2], 4.53e-05 M; under setting [3], 4.53e-05 M. Besides, the “CC-v2” value under setting [5] is recorded as -3. Besides, the Efficacy under setting [4] is given as -54.826.
`C[C@@H]1O[C@@H](O[C@H]2[C@H](O[C@H]3CC[C@@]4(C)C(CC[C@]5(C)C4C=C[C@]46OC[C@@]7(CCC(C)(C)C[C@H]74)[C@@H](O[C@@H]4O[C@@H](C)[C@H](O)[C@@H](O)[C@H]4O)C[C@]65C)[C@]3(C)CO)O[C@H](CO)[C@@H](O)[C@@H]2O[C@@H]2O[C@H](CO)[C@@H](O)[C@H](O)[C@H]2O)[C@H](O)[C@H](O)[C@H]1O` (stereo partly drawn) [NCGC00384707-01]: the Efficacy was -27.107. The same molecule gave an AC50 (Zika virus, Vero) of 6.18e-06 M. Under setting [1], the AC50 was 6.18e-06 M.
For the molecule `CC1=CC(=O)[C@@H](O)[C@]2(C)C3[C@@H](O)[C@@H]4OC(=O)[C@@H]([C@H]4C)[C@]3(C)C(=O)[C@H](O)[C@@H]12` (stereo partly drawn) [NCGC00384766-01], the AC50 was 9.04e-06 M under setting [2] and 9.04e-06 M under setting [3]. This molecule also displayed an Efficacy under setting [4] of -50.694.
With `COc1ccc(CC2C(=O)NC(C)C(=O)N(C)C3Cc4ccc(cc4)Oc4cc(ccc4OC4OC(CO)C(O)C(O)C4O)CC(C(=O)NC(C)C(=O)NC(C)C(=O)N2C)N(C)C3=O)cc1` (stereo not drawn) [NCGC00384826-01], the concentration at half-maximal activity (AC50) is 6.18e-06 M under setting [2] and 6.18e-06 M under setting [3]. Moreover, the “CC-v2” value under setting [5] is -2.2. The molecule also showed an Efficacy under setting [4] of -63.548.
Regarding `CC(/C=C/C=C(\C)C(=O)O[C@@H]1O[C@H](CO[C@@H]2O[C@H](CO)[C@@H](O)[C@H](O)[C@H]2O)[C@@H](O)[C@H](O)[C@H]1O)=C\C=C\C=C(C)\C=C\C=C(/C)C(=O)O[C@@H]1C[C@](O)(C(=O)O)C[C@@H](O)[C@H]1OC(=O)/C=C/c1ccc(O)c(O)c1` [NCGC00384868-01], the “CC-v2” value is -3 and the Efficacy is -78.383. This molecule also gave an AC50 (Zika virus, Vero) of 6.93e-06 M. Under setting [1], the AC50 is 6.93e-06 M.
For `C[C@@H]1C[C@@H]([C@@H](O)C(C)(C)O)O[C@H]2C[C@@]3(C)C(=C12)C[C@H](O)[C@H]1[C@@]2(C)CCC(=O)C(C)(C)C2CC[C@@]13C` (stereo partly drawn) [NCGC00384870-01], the “CC-v2” value was -3 and the Efficacy was -67.591. Moreover, for the setting “Zika virus, Vero”, half-maximal activity (AC50) was put at 1.59e-05 M. For the same molecule, the AC50 under setting [1] was 1.59e-05 M.
With `C=C[C@H]1[C@H](O[C@@H]2O[C@H](CO)[C@@H](O)[C@H](O)[C@H]2O)OC=C(C(=O)OC)[C@H]1CCO` [NCGC00384878-01], the “CC-v2” value is given as -3 and the Efficacy is -80.569. The molecule further displayed a concentration at half-maximal activity (AC50) (Zika virus, Vero) of 2.02e-05 M. Besides, the AC50 under setting [1] is 2.02e-05 M.

In general, AC50 refers to the concentration giving half of the maximal activity seen.
